Measurements taken from patent US20140148419A1, “Treatment of Excessive Menstrual Bleeding Associated with Uterine Fibroids” (PREGLEM SA, priority 2011, published 2014).

System: premenopausal women with heavy uterine bleeding due to uterine fibroids
Test: Double-blind, randomized, placebo-controlled clinical study; menstrual bleeding assessed by pictorial blood loss assessment chart (PBAC), with or without later uterine artery embolization (UAE)
Format: in vivo, human
Conditions: for % Patient with PBAC < 75 at baseline / PBAC at baseline: before treatment; for PBAC at baseline / PBAC 3 months after treatment stop / PBAC 6 months after treatment stop / PBAC at week 13 of treatment: Mean +/- SD
Description: A double-blind, randomized, placebo-controlled study was conducted to evaluate the long term effect of ulipristal acetate in the treatment of uterine fibroids. Patients included premenopausal women 18-50 years with heavy uterine bleeding due to uterine fibroids who were eligible for surgery. These patients met the criteria of a Pictorial Bleeding Assessment Chart (PBAC) score >100 during days 1-8 of menstruation.
The patients were randomized in a 2:2:1 manner to receive for 12 weeks, either ulipristal acetate (UPA) 5 mg or ulipristal acetate 10 mg or placebo. In addition, all patients received concomitant iron therapy (1 tablet of 80 mg or iron once daily, Tardyfero®). The reference to 2:2:1 means that for every 5 patients, two would be randomized to receive UA 5 mg, two to receive UA 10 mg and one to receive placebo.
Forty-eight patients received a daily placebo treatment, 95 patients received a daily dose of 5 mg ulipristal acetate (Esmya®), and 98 patients received a daily dose of 10 mg ulipristal acetate (Esmya®). […] Thirty-three subjects underwent a Uterine Artery Embolization at or after week 13: 4 patients in the placebo group (group 4), 11 patients in the 5 mg ulipristal (Esmya®) group (group 5) and 18 patients in the 10 mg ulipristal (Esmya®)) group (group 6).
For study enrollment as well as follow-up assessment, menstrual bleeding was assessed using the pictorial blood loss assessment chart (PBAC) developed by Higham and colleagues (Higham J M, O'Brien P M, Shaw R W. Assessment of menstrual blood loss using a pictorial chart. Br J Obstet Gynaecol 1990; 97:734-9). The PBAC is one of the current standard methods used to objectively estimate menstrual blood loss and diagnose menorrhagia. Abnormal bleeding is defined as PBAC score >100 over 8 days of menstruation. Normal menstrual bleeding PBAC is <75. Amenorrhea is PBAC=0.
The PBAC score was assessed before treatment (Baseline), at week 13 after the end of treatment with ulipristal, at 3 months and 6 months after […].
The PBAC and the % of patients with a PBAC <75 was reported before treatment (Baseline), at week 13 after the end of treatment with ulipristal, at 3 months and 6 months after the treatment stop.

[1] = 5 mg daily, no UAE or any other surgery (Group 2)
[2] = 5 mg daily, no UAE or any other surgery (Group 2), listed as ulipristal
[3] = 5 mg daily, with UAE (Group 5), listed as ulipristal
[4] = 10 mg daily, no UAE or any other surgery (Group 3)
[5] = 10 mg daily, no UAE or any other surgery (Group 3), listed as ulipristal
[6] = 10 mg daily, with UAE (Group 6)
[7] = 10 mg daily, with UAE (Group 6), listed as ulipristal
[8] = 5 mg daily, with UAE performed after treatment stop (Group 5)
[9] = 10 mg daily, with UAE performed after treatment stop (Group 6)

CC(=O)O[C@]1(C(C)=O)CC[C@H]2[C@@H]3CCC4=CC(=O)CCC4=C3[C@@H](c3ccc(N(C)C)cc3)C[C@@]21C [Esmya, 17α-acetoxy-11β-[4-N,N-dimethylaminophenyl)-19-norpregna-4,9-diene-3,20-dione]
% Patient with PBAC < 75, 3 months after end of treatment [1]: 15% | % Patient with PBAC < 75, 6 months after end of treatment [1]: 17% | % Patient with PBAC < 75 at week 13 of treatment [1]: 98% | % Patient with PBAC < 75 at baseline [1]: 0% | % Patient with PBAC < 75, 3 months after end of treatment [2]: 15% | % Patient with PBAC < 75 at week 13 of treatment [2]: 98% | % Patient with PBAC < 75, 3 months after end of treatment (5 mg daily, with UAE (Group 5)): 36% | % Patient with PBAC < 75, 6 months after end of treatment (5 mg daily, with UAE (Group 5)): 27% | % Patient with PBAC < 75 at week 13 of treatment (5 mg daily, with UAE (Group 5)): 100% | % Patient with PBAC < 75 at baseline (5 mg daily, with UAE (Group 5)): 0% | % Patient with PBAC < 75, 3 months after end of treatment [3]: 36% | % Patient with PBAC < 75, 6 months after end of treatment [3]: 27% | % Patient with PBAC < 75 at week 13 of treatment [3]: 100% | % Patient with PBAC < 75, 3 months after end of treatment [4]: 17% | % Patient with PBAC < 75, 6 months after end of treatment [4]: 26% | % Patient with PBAC < 75 at week 13 of treatment [4]: 97% | % Patient with PBAC < 75 at baseline [4]: 0% | % Patient with PBAC < 75, 3 months after end of treatment [5]: 17% | % Patient with PBAC < 75 at week 13 of treatment [5]: 97% | % Patient with PBAC < 75, 3 months after end of treatment [6]: 60% | % Patient with PBAC < 75, 6 months after end of treatment [6]: 53% | % Patient with PBAC < 75 at week 13 of treatment [6]: 100% | % Patient with PBAC < 75 at baseline [6]: 0% | % Patient with PBAC < 75, 3 months after end of treatment [7]: 60% | % Patient with PBAC < 75, 6 months after end of treatment [7]: 53% | % Patient with PBAC < 75 at week 13 of treatment [7]: 100% | PBAC at baseline (5 mg daily oral 12 weeks, no UAE or any other surgery (Group 2)): 419 +/− 281 | PBAC at baseline (5 mg daily oral 12 weeks, with UAE performed after treatment stop (Group 5)): 490 +/− 231 | PBAC 3 months after treatment stop [1]: 337 +/− 300 | PBAC 6 months after treatment stop [1]: 338 +/− 233 | PBAC at week 13 of treatment [1]: 13 +/− 69 | PBAC 3 months after treatment stop [8]: 202 +/− 102 | PBAC 6 months after treatment stop [8]: 207 +/− 117 | PBAC at week 13 of treatment [8]: 25 +/− 60 | PBAC at baseline (10 mg daily oral 12 weeks, no UAE or any other surgery (Group 3)): 340 +/− 187 | PBAC at baseline (10 mg daily oral 12 weeks, with UAE performed after treatment stop (Group 6)): 375 +/− 135 | PBAC 3 months after treatment stop [4]: 417 +/− 669 | PBAC 6 months after treatment stop [4]: 203 +/− 161 | PBAC at week 13 of treatment [4]: 2 +/− 13 | PBAC 3 months after treatment stop [9]: 120 +/− 55 | PBAC 6 months after treatment stop [9]: 136 +/− 70 | PBAC at week 13 of treatment [9]: 0 +/− 0 | effect for controlling menstrual bleeding resulting from oral administration prior to UAE (oral ulipristal prior to UAE versus ulipristal alone and UAE alone): synergistic effect
